Where two headings read alike, the source gives them in different places. Bridge positions count the residues as written; N and C are the ends. Square brackets hold non-standard residues; d marks the D form. Peptide text beside a SMILES is read from it. Gly(N-2-aminoethyl) = NCCNCC(=O)O; Hyp = O=C(O)[C@@H]1C[C@@H](O)CN1; Pen = CC(C)(S)[C@H](N)C(=O)O; dDab = NCC[C@@H](N)C(=O)O; Dab = NCC[C@H](N)C(=O)O
Tests used:
[1] = system: human red blood cells (hRBC); test: Hemolysis of human red blood cells; type: cell-based
How it was run: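 Percent hemolysis is OD540 of peptide-treated supernatant relative to water-lysed cells. Each peptide was tested at 200 μg/mL against 20% (v/v) washed human erythrocytes. Incubation was 1 h at 37 °C, 300 rpm.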

[2] = system: Escherichia coli ATCC 25922
How it was run: (§1)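 Standardized inocula (0.5 McFarland in saline, then diluted in MHII broth to approximately 5×10^5 CFU/mL) were exposed to two-fold dilution series of each peptide in the presence of polysorbate 80 (0.002% final).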

[3] = system: Escherichia coli MCR-1 Af 45
How it was run: as §1

[4] = system: Klebsiella pneumoniae SSI3010
How it was run: as §1

[5] = Mueller-Hinton broth II, 18-20 hours at 35° C.

Structure (SMILES)	Escherichia coli ATCC 25922 MIC ([2]; ATCC 25922)	Escherichia coli MCR-1 Af 45 MIC ([3]; MCR-1 Af 45)	Klebsiella pneumoniae SSI3010 MIC ([4]; SSI3010)	Hemolysis at 0.2 g/L ([1]; red cells of human, 1 h)	Escherichia coli MCR-1 Af 45 MIC [3, 5]	Hemolysis at 0.2 g/L ([1]; 20% hRBC, 1 h at 37° C.)	Escherichia coli ATCC 25922 MIC [2, 5]	Klebsiella pneumoniae SSI3010 MIC [4, 5]
CC[C@H](C)[C@H](NC(=O)CN(CCN)C(=O)[C@@H](NC(=O)[C@@H]1C[C@@H](O)CN1C(=O)[C@H](CCCCN)NC(=O)[C@@H](N)CCCCN)C(C)C)C(=O)N[C@H](C(=O)N[C@@H](Cc1ccc(O)cc1)C(=O)N[C@@H]1C(=O)N[C@@H](CC(N)=O)C(=O)N[C@@H](CCCNC(=N)N)C(=O)N[C@@H](CCN)C(=O)N[C@@H]([C@@H](C)O)C(=O)N[C@H](CCN)C(=O)N[C@@H](CCCCN)C(=O)N[C@H](C(=O)N[C@@H](CCN)C(=O)N[C@@H](CCCNC(=N)N)C(=O)N[C@@H](Cc2ccc(O)cc2)C(=O)O)CSSC1(C)C)[C@@H](C)O [Example 126, Lys-Lys-Hyp-Val-Ndab-Ile-Thr-Tyr-Pen-Asn-Arg-Dab-Thr-^DDab-Lys-Cys-Dab-Arg-Tyr] (HELM PEPTIDE1{K.K.[Hyp].V.[NCCN(CC(=O)[*:2])[*:1]].I.T.Y.[Pen].N.R.[Dab].T.[NCC[C@@H](N[*:1])C(=O)[*:2]].K.C.[Dab].R.Y}$PEPTIDE1,PEPTIDE1,9:R3-16:R3$$$V2.0)	≤0.03125 µg/mL	≤0.03125 µg/mL	0.0625 µg/mL	0%				
CC[C@H](C)[C@H](NC(=O)[C@@H]1C[C@@H](O)CN1C(=O)[C@@H](NC(=O)[C@@H]1C[C@@H](O)CN1C(=O)[C@H](CCCCN)NC(=O)[C@@H](N)CCCCN)C(C)C)C(=O)N[C@H](C(=O)N[C@@H](Cc1ccc(O)cc1)C(=O)N[C@@H]1C(=O)N[C@@H](CC(N)=O)C(=O)N[C@@H](CCCNC(=N)N)C(=O)N[C@@H](CCN)C(=O)N[C@@H]([C@@H](C)O)C(=O)N[C@H](CCN)C(=O)N[C@@H](CCCCN)C(=O)N[C@H](C(=O)N[C@@H](Cc2ccc(O)cc2)C(=O)N[C@@H](CCCNC(=N)N)C(=O)N[C@@H](Cc2ccc(O)cc2)C(=O)O)CSSC1(C)C)[C@@H](C)O [Example 128, Lys-Lys-Hyp-Val-Hyp-Ile-Thr-Tyr-Pen-Asn-Arg-Dab-Thr-^DDab-Lys-Cys-Tyr-Arg-Tyr] (HELM PEPTIDE1{K.K.[Hyp].V.[Hyp].I.T.Y.[Pen].N.R.[Dab].T.[NCC[C@@H](N[*:1])C(=O)[*:2]].K.C.Y.R.Y}$PEPTIDE1,PEPTIDE1,9:R3-16:R3$$$V2.0; N-terminus and C-terminus assumed)	0.125 µg/mL	0.0625 µg/mL	0.125 µg/mL	0%				
CCCC[C@H](NC(=O)[C@H](CCCNC(=N)N)NC(=O)[C@H](CCN)NC(=O)[C@@H]1CSSC[C@H](NC(=O)[C@H](Cc2ccc(O)cc2)NC(=O)[C@@H](NC(=O)[C@@H](NC(=O)[C@@H]2CCCN2C(=O)[C@@H](N)C(C)C)[C@@H](C)CC)[C@@H](C)CC)C(=O)N[C@@H](CC(N)=O)C(=O)N[C@@H](CCCNC(=N)N)C(=O)N[C@@H](CCCNC(=N)N)C(=O)N[C@@H]([C@@H](C)O)C(=O)N[C@H](CCN)C(=O)N[C@@H](CCCCN)C(=O)N1)C(=O)O [Example 134] (HELM PEPTIDE1{V.P.I.I.Y.C.N.R.R.T.[NCC[C@@H](N[*:1])C(=O)[*:2]].K.C.[Dab].R.[Nle]}$PEPTIDE1,PEPTIDE1,6:R3-13:R3$$$V2.0)	0.0625 µg/mL		0.125 µg/mL	0%	0.0625 µg/mL			
CCCC[C@H](NC(=O)[C@H](CCCNC(=N)N)NC(=O)[C@H](CCN)NC(=O)[C@@H]1CSSC(C)(C)[C@H](NC(=O)[C@H](Cc2ccc(O)cc2)NC(=O)[C@@H](NC(=O)[C@@H](NC(=O)[C@@H]2C[C@@H](N)CN2C(=O)[C@@H](N)C(C)C)[C@@H](C)CC)[C@@H](C)CC)C(=O)N[C@@H](CC(N)=O)C(=O)N[C@@H](CCCNC(=N)N)C(=O)N[C@@H](CCCNC(=N)N)C(=O)N[C@@H]([C@@H](C)O)C(=O)N[C@H](CCN)C(=O)N[C@@H](CCCCN)C(=O)N1)C(=O)O [Example 135] (HELM PEPTIDE1{V.[N[C@@H]1C[C@@H](C(=O)[*:2])N([*:1])C1].I.I.Y.[Pen].N.R.R.T.[NCC[C@@H](N[*:1])C(=O)[*:2]].K.C.[Dab].R.[Nle]}$PEPTIDE1,PEPTIDE1,6:R3-13:R3$$$V2.0)					0.0625 µg/mL	0%	0.0625 µg/mL	0.125 µg/mL

Second part, led by results:

Escherichia coli ATCC 25922 MIC ([2]; ATCC 25922)	Escherichia coli MCR-1 Af 45 MIC ([3]; MCR-1 Af 45)	Klebsiella pneumoniae SSI3010 MIC ([4]; SSI3010)	Structure (SMILES)	Hemolysis at 0.2 g/L ([1]; red cells of human, 1 h)	Escherichia coli MCR-1 Af 45 MIC [3, 5]	Hemolysis at 0.2 g/L ([1]; 20% hRBC, 1 h at 37° C.)	Escherichia coli ATCC 25922 MIC [2, 5]	Klebsiella pneumoniae SSI3010 MIC [4, 5]
0.25 µg/mL	0.0625 µg/mL	0.125 µg/mL	CC[C@H](C)[C@H](NC(=O)CN(CCN)C(=O)[C@@H](NC(=O)[C@@H]1C[C@@H](O)CN1C(=O)[C@H](CCCCN)NC(=O)[C@@H](N)CCCCN)C(C)C)C(=O)N[C@H](C(=O)N[C@@H](Cc1ccc(O)cc1)C(=O)N[C@@H]1C(=O)N[C@@H](CC(N)=O)C(=O)N[C@@H](CCCNC(=N)N)C(=O)N[C@@H](CCN)C(=O)N[C@@H]([C@@H](C)O)C(=O)N[C@H](CCN)C(=O)N[C@@H](CCCCN)C(=O)N[C@H](C(=O)N[C@@H](Cc2ccc(O)cc2)C(=O)N[C@@H](CCCNC(=N)N)C(=O)N[C@@H](Cc2ccc(O)cc2)C(=O)O)CSSC1(C)C)[C@@H](C)O [Example 129, Lys-Lys-Hyp-Val-Ndab-Ile-Thr-Tyr-Pen-Asn-Arg-Dab-Thr-^DDab-Lys-Cys-Tyr-Arg-Tyr] (HELM PEPTIDE1{K.K.[Hyp].V.[NCCN(CC(=O)[*:2])[*:1]].I.T.Y.[Pen].N.R.[Dab].T.[NCC[C@@H](N[*:1])C(=O)[*:2]].K.C.Y.R.Y}$PEPTIDE1,PEPTIDE1,9:R3-16:R3$$$V2.0)	0%				
0.25 µg/mL	0.125 µg/mL	0.25 µg/mL	CC[C@H](C)[C@H](NC(=O)CN(CCN)C(=O)[C@@H](NC(=O)[C@@H]1C[C@@H](O)CN1C(=O)[C@H](CCCCN)NC(=O)CNCCN)C(C)C)C(=O)N[C@H](C(=O)N[C@@H](Cc1ccc(O)cc1)C(=O)N[C@@H]1C(=O)N[C@@H](CC(N)=O)C(=O)N[C@@H](CCCNC(=N)N)C(=O)N[C@@H](CCN)C(=O)N[C@@H]([C@@H](C)O)C(=O)N[C@H](CCN)C(=O)N[C@@H](CCCCN)C(=O)N[C@H](C(=O)N[C@@H](Cc2ccc(O)cc2)C(=O)N[C@@H](CCCNC(=N)N)C(=O)N[C@@H](Cc2ccc(O)cc2)C(=O)O)CSSC1(C)C)[C@@H](C)O [Example 130, Ndab-Lys-Hyp-Val-Ndab-Ile-Thr-Tyr-Pen-Asn-Arg-Dab-Thr-^DDab-Lys-Cys-Tyr-Arg-Tyr] (H-[Gly(N-2-aminoethyl)]K[Hyp]V[Gly(N-2-aminoethyl)]ITY[Pen]NR[Dab]T[dDab]KCYRY-OH; disulfide 9-16)	0%				
0.125 µg/mL	0.125 µg/mL	0.25 µg/mL	CC[C@H](C)[C@H](NC(=O)[C@@H](NC(=O)[C@@H]1CCCN1C(=O)[C@@H](NC(=O)[C@@H]1C[C@@H](N)CN1C(=O)[C@H](CCCCN)NC(=O)[C@@H](N)CCCCN)C(C)C)[C@@H](C)CC)C(=O)N[C@@H](Cc1ccc(O)cc1)C(=O)N[C@H]1CCNC(=O)CC[C@@H](C(=O)N[C@@H](CCN)C(=O)N[C@@H](CCCNC(=N)N)C(=O)N[C@@H](Cc2ccc(O)cc2)C(=O)O)NC(=O)[C@H](CCCCN)NC(=O)[C@@H](CCN)NC(=O)[C@H]([C@@H](C)O)NC(=O)[C@H](CCN)NC(=O)[C@H](CCCNC(=N)N)NC(=O)[C@H](CC(N)=O)NC1=O [Example 131, Lys-Lys-Pro((4R)NH2)-Val-Pro-Ile-Ile-Tyr-Dab-Asn-Arg-Dab-Thr-^DDab-Lys-Glu-Dab-Arg-Tyr] (HELM PEPTIDE1{K.K.[N[C@@H]1C[C@@H](C(=O)[*:2])N([*:1])C1].V.P.I.I.Y.[Dab].N.R.[Dab].T.[NCC[C@@H](N[*:1])C(=O)[*:2]].K.E.[Dab].R.Y}$PEPTIDE1,PEPTIDE1,9:R3-16:R3$$$V2.0)	0%				
0.0625 µg/mL	0.0625 µg/mL	0.0625 µg/mL	CC[C@H](C)[C@H](NC(=O)[C@@H](NC(=O)[C@@H]1CCCN1C(=O)[C@@H](NC(=O)[C@@H]1C[C@@H](N)CN1C(=O)[C@H](CCCCN)NC(=O)[C@@H](N)CCCCN)C(C)C)[C@@H](C)CC)C(=O)N[C@@H](Cc1ccc(O)cc1)C(=O)N[C@H]1CC(=O)NCC[C@@H](C(=O)N[C@@H](CCN)C(=O)N[C@@H](CCCNC(=N)N)C(=O)N[C@@H](Cc2ccc(O)cc2)C(=O)O)NC(=O)[C@H](CCCCN)NC(=O)[C@@H](CCN)NC(=O)[C@H]([C@@H](C)O)NC(=O)[C@H](CCN)NC(=O)[C@H](CCCNC(=N)N)NC(=O)[C@H](CC(N)=O)NC1=O [Example 132] (HELM PEPTIDE1{K.K.[N[C@@H]1C[C@@H](C(=O)[*:2])N([*:1])C1].V.P.I.I.Y.D.N.R.[Dab].T.[NCC[C@@H](N[*:1])C(=O)[*:2]].K.[Dab].[Dab].R.Y}$PEPTIDE1,PEPTIDE1,9:R3-16:R3$$$V2.0)	0%				
0.25 µg/mL	0.25 µg/mL	0.25 µg/mL	CC[C@H](C)[C@H](NC(=O)[C@@H](NC(=O)[C@@H]1CCCN1C(=O)[C@@H](NC(=O)[C@@H]1C[C@@H](N)CN1C(=O)[C@H](CCCCN)NC(=O)[C@@H](N)CCCCN)C(C)C)[C@@H](C)CC)C(=O)N[C@@H](Cc1ccc(O)cc1)C(=O)N[C@H]1CCC(=O)NCC[C@@H](C(=O)N[C@@H](CCN)C(=O)N[C@@H](CCCNC(=N)N)C(=O)N[C@@H](Cc2ccc(O)cc2)C(=O)O)NC(=O)[C@H](CCCCN)NC(=O)[C@@H](CCN)NC(=O)[C@H]([C@@H](C)O)NC(=O)[C@H](CCN)NC(=O)[C@H](CCCNC(=N)N)NC(=O)[C@H](CC(N)=O)NC1=O [Example 133] (HELM PEPTIDE1{K.K.[N[C@@H]1C[C@@H](C(=O)[*:2])N([*:1])C1].V.P.I.I.Y.E.N.R.[Dab].T.[NCC[C@@H](N[*:1])C(=O)[*:2]].K.[Dab].[Dab].R.Y}$PEPTIDE1,PEPTIDE1,9:R3-16:R3$$$V2.0)	0%				
